The source of these data is ChEMBL document CHEMBL1139978, “Synthesis and radiopharmacological characterization of [11C]AL-438 as a nonsteroidal ligand for imaging brain glucocorticoid receptors” (Bioorg Med Chem Lett, 2007).

One test addresses T1, Glucocorticoid receptor (Rattus norvegicus, UniProt P06536).
T1 sequence (P06536 whole entry): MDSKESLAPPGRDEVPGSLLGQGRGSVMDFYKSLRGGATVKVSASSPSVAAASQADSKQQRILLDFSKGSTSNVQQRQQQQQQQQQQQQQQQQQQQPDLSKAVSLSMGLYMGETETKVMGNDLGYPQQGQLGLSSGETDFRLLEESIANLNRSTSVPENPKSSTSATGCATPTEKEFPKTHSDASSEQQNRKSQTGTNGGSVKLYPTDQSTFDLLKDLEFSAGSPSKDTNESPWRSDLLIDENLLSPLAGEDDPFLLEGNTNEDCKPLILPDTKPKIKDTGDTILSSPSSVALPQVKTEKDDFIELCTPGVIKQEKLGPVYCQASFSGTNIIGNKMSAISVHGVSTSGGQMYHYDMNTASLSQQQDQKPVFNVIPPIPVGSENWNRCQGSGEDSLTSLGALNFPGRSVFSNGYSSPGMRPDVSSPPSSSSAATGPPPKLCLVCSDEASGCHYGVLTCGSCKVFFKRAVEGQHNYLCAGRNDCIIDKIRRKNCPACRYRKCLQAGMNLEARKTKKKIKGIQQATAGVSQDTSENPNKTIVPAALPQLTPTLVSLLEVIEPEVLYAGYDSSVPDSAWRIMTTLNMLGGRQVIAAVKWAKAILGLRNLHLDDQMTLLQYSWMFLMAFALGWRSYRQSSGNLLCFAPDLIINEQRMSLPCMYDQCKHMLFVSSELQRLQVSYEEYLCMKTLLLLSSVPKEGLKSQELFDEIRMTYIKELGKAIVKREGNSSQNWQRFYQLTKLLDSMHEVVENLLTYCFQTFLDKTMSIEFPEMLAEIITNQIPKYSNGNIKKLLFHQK
Put plainly: Binding affinity to rat glucocorticoid receptor.

For another test, the target named is Progesterone receptor (Rattus norvegicus, UniProt Q63449). Put plainly: Binding affinity to progesterone receptor.
Sequence of Progesterone receptor (Q63449 whole entry): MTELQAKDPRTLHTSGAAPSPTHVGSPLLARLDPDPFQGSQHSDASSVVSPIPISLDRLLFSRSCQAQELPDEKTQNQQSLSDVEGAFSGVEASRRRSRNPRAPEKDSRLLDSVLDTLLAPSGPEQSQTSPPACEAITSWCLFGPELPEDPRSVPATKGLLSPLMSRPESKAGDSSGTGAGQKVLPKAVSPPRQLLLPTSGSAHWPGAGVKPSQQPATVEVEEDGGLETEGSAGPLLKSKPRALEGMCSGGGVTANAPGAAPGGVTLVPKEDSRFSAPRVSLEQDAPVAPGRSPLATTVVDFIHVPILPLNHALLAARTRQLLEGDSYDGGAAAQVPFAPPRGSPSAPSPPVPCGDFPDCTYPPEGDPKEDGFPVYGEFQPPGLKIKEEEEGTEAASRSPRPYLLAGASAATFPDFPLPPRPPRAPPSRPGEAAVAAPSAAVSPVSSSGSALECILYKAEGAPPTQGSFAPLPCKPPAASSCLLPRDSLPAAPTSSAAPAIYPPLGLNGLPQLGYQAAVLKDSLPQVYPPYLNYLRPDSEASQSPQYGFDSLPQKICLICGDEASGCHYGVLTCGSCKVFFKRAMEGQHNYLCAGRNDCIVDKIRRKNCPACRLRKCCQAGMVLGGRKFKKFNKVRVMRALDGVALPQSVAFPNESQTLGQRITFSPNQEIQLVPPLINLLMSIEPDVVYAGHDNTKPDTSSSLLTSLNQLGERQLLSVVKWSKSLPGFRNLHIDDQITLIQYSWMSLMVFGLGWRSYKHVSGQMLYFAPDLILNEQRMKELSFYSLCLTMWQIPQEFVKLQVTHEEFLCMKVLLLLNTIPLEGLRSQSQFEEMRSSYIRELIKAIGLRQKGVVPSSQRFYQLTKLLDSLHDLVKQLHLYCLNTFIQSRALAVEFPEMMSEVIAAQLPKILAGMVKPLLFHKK

Broadly, the EC50 is the concentration at which the effect is half-maximal. Lower therefore signals a more potent agent. For the compound `C=CCC1Oc2cccc(OC)c2-c2ccc3c(c21)C(C)=CC(C)(C)N3` (configuration not stated) [AL-43], the EC50 at Glucocorticoid receptor is 7.94 nM; on Progesterone receptor, 126 nM.
